#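 Each compound was tested at five concentrations against cells in 96-well plates for 48 hours. TGI denotes the concentration required for complete inhibition of growth.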
# What was measured:
# Experiment in all cases: NCI anticancer screen, dose series, 48 h
# [1] = tested on: A549 NSCLC
# [2] = tested on: HCT-116 colon
# [3] = tested on: HOP-92 NSCLC
# [4] = tested on: HS 578T breast
# [5] = tested on: IGROV1 ovarian
# [6] = tested on: K-562 leukemia
# [7] = tested on: KM12 colon
# [8] = tested on: SF-268 CNS
# [9] = tested on: SF-539 CNS
# [10] = tested on: HL-60(TB) leukemia
Compound,TGI [1] [µM],TGI [2] [µM],TGI [3] [µM],TGI [4] [µM],TGI [5] [µM],TGI [6] [µM],TGI [7] [µM],TGI [8] [µM],TGI [9] [µM],TGI [10] [µM]
COC(=O)c1cccc(COc2ccc([N+](=O)[O-])cc2Cl)c1,> 100,> 100,> 100,> 100,> 100,> 100,> 100,> 100,> 100,–
NCCCSCC(=O)O,> 100,> 100,> 100,–,> 100,> 100,> 100,> 100,> 100,–
COC(=O)C1=CCS(=O)(=O)C1,> 100,> 100,> 100,–,> 100,> 100,> 100,> 100,> 100,> 100
O=C1C2Cc3ccccc3CN2C(=O)N1CCN1CCOCC1 (stereo unspecified),> 100,–,–,–,> 100,> 100,> 100,> 100,> 100,> 100
CC(NC(=O)C1(N)CCCC1)C(=O)O (stereo unspecified),> 100,> 100,–,> 100,> 100,> 100,> 100,> 100,–,> 100
COc1ccc(/C=C\c2cc(OC)c(OC(C)=O)c(OC)c2)cc1,78,> 100,68.3,–,> 100,31,61.2,> 100,14.9,–
OCC1C2C=CC(O2)[C@H]1CO (stereo partly specified),> 100,> 100,> 100,–,> 100,–,> 100,> 100,> 100,> 100
Nc1c(-c2ccc(-c3c(N)[n+]([O-])c4ccccc4[n+]3[O-])cc2)[n+]([O-])c2ccccc2[n+]1[O-],51.9,–,> 100,–,47.5,> 100,23.6,66.2,18.2,> 100
Cc1ccc(Sc2cc([N+](=O)[O-])cc(Sc3ccc(C)cc3)c2Sc2ccc(C)cc2)cc1,> 100,> 100,–,–,> 100,> 100,> 100,> 100,> 100,> 100
O=C1CCC(=O)C12CCc1ccccc12,> 100,–,> 100,–,> 100,–,–,> 100,–,> 100
Cc1cccc(C)c1NC(=O)/C(CC(=O)CC(c1ccccc1)c1c(O)c2ccccc2oc1=O)=N/O (stereo unspecified),> 100,> 100,> 100,> 100,> 100,–,> 100,> 100,> 100,> 100
CC(=O)Oc1cc(OC(C)=O)c(OC(C)=O)c2c1CC1C(=O)C3(CCc4ccccc43)C(=O)C1C2 (stereo unspecified),44.6,–,> 100,–,38.6,28.1,–,–,–,22.4
O=C1OC(=O)C2C1C1(c3ccccc3)OC2(c2ccccc2)c2c(Br)c(Br)c(Br)c(Br)c21 (stereo unspecified),> 100,> 100,> 100,–,> 100,> 100,> 100,> 100,> 100,> 100

# From PubChem BioAssay (NCI)
